In US10172905B1, “Treatment of protein degradation disorders” (President and Fellows of Harvard College, priority 2005, dated 2019):
Entries after “also recorded” stand apart in the source; their conditions may differ.

What was measured:
[1] = system: JNK phosphorylation and caspase/PARP cleavage; test: Western blotting for p21Cip1, p-JNK, caspases and PARP; assay type: cell-based, human
Experimental: MM cells were cultured with Velcade and/or Tubacin; harvested; washed; and lysed using lysis buffer: 50 mM Tris-HCl (pH 7.4), 150 mM NaCl, 1% NP-40, 5 mM EDTA, 5 mM NaF, 2 mM Na3VO4, 1 mM PMSF, 5 μg/ml leupeptine, and 5 μg/ml aprotinin. Cell lysates were subjected to SDS-PAGE, transferred to PVDF membrane (Bio-Rad Laboratories, Hercules, Calif.), and immunoblotted with Abs against specific proteins.
(§1) Cells cultured with tubacin and/or bortezomib were harvested; washed, and lysed using lysis buffer: 50 mM Tris-HCl (pH 7.4), 150 mM NaCl, 1% NP-40, 5 mM EDTA, 5 mM NaF, 1 mM Na3VO4, 1 mM PMSF, 5 μg/ml leupeptine, and 5 μg/ml aprotinin. Whole cell lysates were subjected to SDS-PAGE, transferred to nitrocellulose membrane (Bio-Rad Laboratories, Hercules, Calif.), and immunoblotted with specific Abs (31). Western blotting was done using anti-HDAC6, acetylated lysine, acetylated histone H3, acetylated histone H4, ubiquitin (Ub), phospho-SAPK (JNK), caspase-8 caspase-9, caspase-3, and PARP Abs (Cell Signaling, Beverly, Mass.); with anti-α-tubulin Ab (Santa Cruz Biotechnology, Santa Cruz, Calif.); as well as with anti-dynein Ab (Sigma, Saint Louis, Mo.). For immunoprecipitation, whole cell lysates were incubated with anti-Ub or dynein Abs overnight at 4° C., and then incubated with protein A/G PLUS-Agarose (Santa Cruz Biotechnology) for 2 h at 4° C., as in our prior study (31). Immunoprecipitates were then subjected to Western blotting for detection of HDAC6 and dynein.

MM cell lines = test: MTT growth inhibition / cytotoxicity assay in MM cell lines; assay type: cell-based, human; details: for growth inhibitory / cytotoxic effect as single agent: MM cell lines, MTT and 3H-thymidine uptake
Experimental: The inhibitory effect of bortezomib and/or tubacin on MM cell growth was assessed by measuring 3-(4,5-dimethylthiazol-2-yl)-2,5-diphenyl tetrazolium bromide (MTT) dye absorbance, as described previously (33). […] All experiments were performed in quadruplicate.
These cells were treated with tubacin (1.25-20 μM) for 48 h (FIG. 2A) and 72 h (FIG. 2B), and cytotoxicity was assessed by MTT assay, as describe.

[2] = molecular target: T1, interaction of HDAC6 with dynein (Homo sapiens, UniProt Q9UBN7); test: Co-immunoprecipitation of HDAC6 with dynein or ubiquitinated proteins; assay type: cell-based; details: tubacin 2.5 and 5 μM, 8 h, MM.1S cells
T1 sequence (Q9UBN7 1-1215): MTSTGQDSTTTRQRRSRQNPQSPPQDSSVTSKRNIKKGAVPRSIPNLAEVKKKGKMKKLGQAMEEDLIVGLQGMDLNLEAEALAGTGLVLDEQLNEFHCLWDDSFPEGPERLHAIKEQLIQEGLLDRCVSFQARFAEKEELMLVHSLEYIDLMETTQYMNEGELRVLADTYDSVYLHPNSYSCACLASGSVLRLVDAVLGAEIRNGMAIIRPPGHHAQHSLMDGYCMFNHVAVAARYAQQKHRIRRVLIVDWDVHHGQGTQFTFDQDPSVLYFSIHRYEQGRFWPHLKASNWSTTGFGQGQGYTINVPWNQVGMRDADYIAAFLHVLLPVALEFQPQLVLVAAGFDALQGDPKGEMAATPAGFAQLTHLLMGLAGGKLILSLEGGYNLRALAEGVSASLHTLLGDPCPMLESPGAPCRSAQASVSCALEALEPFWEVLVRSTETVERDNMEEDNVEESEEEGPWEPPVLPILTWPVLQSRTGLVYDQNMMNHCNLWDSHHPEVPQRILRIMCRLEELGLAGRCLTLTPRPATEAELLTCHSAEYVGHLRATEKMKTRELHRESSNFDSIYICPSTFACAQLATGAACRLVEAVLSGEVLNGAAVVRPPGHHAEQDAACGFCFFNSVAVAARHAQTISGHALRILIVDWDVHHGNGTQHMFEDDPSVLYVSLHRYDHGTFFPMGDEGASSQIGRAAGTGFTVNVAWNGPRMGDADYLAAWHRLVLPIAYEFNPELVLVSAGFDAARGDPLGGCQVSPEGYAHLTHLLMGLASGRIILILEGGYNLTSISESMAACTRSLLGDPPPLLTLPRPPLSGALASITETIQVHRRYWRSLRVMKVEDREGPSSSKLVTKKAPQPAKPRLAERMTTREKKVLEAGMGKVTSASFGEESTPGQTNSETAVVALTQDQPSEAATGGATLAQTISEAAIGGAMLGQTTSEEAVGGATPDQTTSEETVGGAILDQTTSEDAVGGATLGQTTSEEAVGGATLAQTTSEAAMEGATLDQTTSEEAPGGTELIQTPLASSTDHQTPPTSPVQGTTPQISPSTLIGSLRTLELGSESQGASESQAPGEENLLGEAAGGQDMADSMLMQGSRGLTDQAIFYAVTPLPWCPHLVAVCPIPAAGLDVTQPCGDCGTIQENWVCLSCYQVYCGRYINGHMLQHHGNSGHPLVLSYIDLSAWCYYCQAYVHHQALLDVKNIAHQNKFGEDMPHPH
Experimental: as §1

PBMCs = test: MTT cytotoxicity assay in normal PBMCs; assay type: cell-based, human; details: PBMCs from normal volunteers, tubacin 2.5-20 μM, 48 h
[3] = system: polyubiquitinated proteins; test: Western blotting with anti-Ub Ab; assay type: cell-based, human; details: tubacin alone
Experimental: as §1

## O=C(CCCCCCC(=O)Nc1ccc([C@H]2O[C@@H](CSc3nc(-c4ccccc4)c(-c4ccccc4)o3)C[C@@H](c3ccc(CO)cc3)O2)cc1)NO [tubacin]
[1]; MM.1S cells, tubacin 5 μM and/or bortezomib 5 nM, 24 h
  phosphorylation of JNK and caspase/PARP cleavage: does not trigger phosphorylation of JNK or caspase/PRAP cleavage
[1]; tubacin 5 μM + bortezomib 5 nM, MM.1S, 24 h
  induction of p21Cip1 induced by bortezomib: inhibits induction of p21^Cip1 induced by bortezomib
[1]; tubacin 5 μM alone, MM.1S, 24 h
  induction of p21Cip1: does not trigger induction of p21^Cip1
[1]; tubacin 10 μM, 0-24 h, MM.1S and RPMI8226 cells
  caspase-8/PARP cleavage: time-dependent caspase-8/PARP cleavage is induced; also recorded: induces cytotoxicity via activation of caspases
MM cell lines; Homo sapiens, 72 h, drug-sensitive and -resistant MM cell lines
  IC50: 5 to 20 µM
MM cell lines
  growth inhibitory / cytotoxic effect as single agent: marked anti-proliferative, proapoptotic effects; also recorded: dose-dependent growth inhibitory effect
MM cell lines; listed as Tubacin
  growth inhibitory / cytotoxic effect as single agent: cytotoxic
MM cell lines; MM.1S and RPMI8226 cells, 24 h, MTT
  effect of tubacin on bortezomib (Velcade)-induced cytotoxicity: synergistically enhances bortezomib-induced cytotoxicity; also recorded: Synergy; also recorded: potently sensitizes myeloma cells to subtoxic concentrations of bortezomib; also recorded: significantly (p<0.01) augmented cytotoxicity triggered by Velcade; also recorded: synergistic anti-tumor activity
[2]
  co-immunoprecipitation between HDAC6 and ubiquitinated proteins: unaffected
  co-immunoprecipitation of HDAC6 with dynein: markedly inhibited in a dose-dependent fashion; also recorded: inhibits binding of HDAC6 with dynein
PBMCs
  cytotoxicity of tubacin in PBMCs: no cytotoxicity; also recorded: No adverse effect
[3]; MM.1S cells
  polyubiquitinated proteins: no significant change
[3]; RPMI8226 cells
  polyubiquitinated proteins: significantly accumulate; also recorded: increase in cellular ubiquitinated proteins
